Assay: xn = mol fraction of the nth substance listed
Conditions: Liquid, Vibrating tube method

CCCCCCCCCC [decane] + O=C=O
Conditions | mass density [kg/m3]
323.05 K, 14026 kPa, x2 = 0.0551 | 721.01
323.05 K, 15008 kPa, x2 = 0.0551 | 721.76
323.05 K, 16035 kPa, x2 = 0.0551 | 722.62
323.05 K, 17008 kPa, x2 = 0.0551 | 723.4
323.05 K, 18019 kPa, x2 = 0.0551 | 724.22
323.05 K, 18994 kPa, x2 = 0.0551 | 724.89
323.05 K, 20009 kPa, x2 = 0.0551 | 725.73
323.05 K, 21010 kPa, x2 = 0.0551 | 726.47
323.05 K, 21987 kPa, x2 = 0.0551 | 727.22
323.05 K, 23060 kPa, x2 = 0.0551 | 728.04
323.05 K, 23980 kPa, x2 = 0.0551 | 728.74
323.05 K, 25055 kPa, x2 = 0.0551 | 729.61
323.06 K, 5014 kPa, x2 = 0.2369 | 719.6
323.06 K, 6022 kPa, x2 = 0.2369 | 720.66
323.06 K, 7021 kPa, x2 = 0.2369 | 721.73
323.06 K, 7029 kPa, x2 = 0.4536 | 732.05
323.06 K, 8017 kPa, x2 = 0.4536 | 733.42
323.06 K, 8020 kPa, x2 = 0.2369 | 722.8
323.06 K, 9010 kPa, x2 = 0.2369 | 723.79
323.06 K, 9018 kPa, x2 = 0.4536 | 734.79
323.06 K, 10024 kPa, x2 = 0.4536 | 736.13
323.06 K, 10030 kPa, x2 = 0.2369 | 724.84
323.06 K, 11018 kPa, x2 = 0.2369 | 725.81
323.06 K, 11019 kPa, x2 = 0.4536 | 737.41
323.06 K, 12021 kPa, x2 = 0.2369 | 726.78
323.06 K, 12025 kPa, x2 = 0.4536 | 738.69
323.06 K, 13001 kPa, x2 = 0.2369 | 727.75
323.06 K, 13003 kPa, x2 = 0.4536 | 739.89
323.06 K, 14021 kPa, x2 = 0.2369 | 728.7
323.06 K, 14027 kPa, x2 = 0.4536 | 741.16
323.06 K, 15001 kPa, x2 = 0.4536 | 742.33
323.06 K, 15014 kPa, x2 = 0.2369 | 729.63
323.06 K, 16010 kPa, x2 = 0.2369 | 730.54
323.06 K, 16024 kPa, x2 = 0.4536 | 743.53
323.06 K, 17006 kPa, x2 = 0.2369 | 731.46
323.06 K, 17010 kPa, x2 = 0.4536 | 744.68
323.06 K, 18028 kPa, x2 = 0.2369 | 732.36
323.06 K, 18030 kPa, x2 = 0.4536 | 745.84
323.06 K, 19000 kPa, x2 = 0.4536 | 746.93
323.06 K, 19016 kPa, x2 = 0.2369 | 733.24
323.06 K, 20015 kPa, x2 = 0.2369 | 734.11
323.06 K, 20028 kPa, x2 = 0.4536 | 748.09
323.06 K, 21001 kPa, x2 = 0.4536 | 749.17
323.06 K, 21027 kPa, x2 = 0.2369 | 735
323.06 K, 22020 kPa, x2 = 0.4536 | 750.24
323.06 K, 22023 kPa, x2 = 0.2369 | 735.85
323.06 K, 23012 kPa, x2 = 0.4536 | 751.33
323.06 K, 23022 kPa, x2 = 0.2369 | 736.71
323.06 K, 24006 kPa, x2 = 0.2369 | 737.58
323.06 K, 24021 kPa, x2 = 0.4536 | 752.42
323.06 K, 25004 kPa, x2 = 0.2369 | 738.42
323.06 K, 25029 kPa, x2 = 0.4536 | 753.51
332.91 K, 12008 kPa, x2 = 0.8114 | 740.55
332.91 K, 13051 kPa, x2 = 0.8114 | 744.82
332.91 K, 14018 kPa, x2 = 0.8114 | 748.57
332.91 K, 15048 kPa, x2 = 0.8114 | 752.37
332.91 K, 15985 kPa, x2 = 0.8114 | 755.64
332.91 K, 17015 kPa, x2 = 0.8114 | 759.04
332.91 K, 18008 kPa, x2 = 0.8114 | 762.27
332.91 K, 19002 kPa, x2 = 0.8114 | 765.33
332.91 K, 20017 kPa, x2 = 0.8114 | 768.38
332.91 K, 21018 kPa, x2 = 0.8114 | 771.25
332.91 K, 22044 kPa, x2 = 0.8114 | 774.13
332.91 K, 23040 kPa, x2 = 0.8114 | 776.83
332.91 K, 24008 kPa, x2 = 0.8114 | 779.4
332.91 K, 25047 kPa, x2 = 0.8114 | 782.09
332.94 K, 1997 kPa, x2 = 0.0551 | 702.61
332.94 K, 3024 kPa, x2 = 0.0551 | 703.63
332.94 K, 4011 kPa, x2 = 0.0551 | 704.59
332.94 K, 5026 kPa, x2 = 0.2369 | 711.09
332.94 K, 5040 kPa, x2 = 0.0551 | 705.62
332.94 K, 6015 kPa, x2 = 0.2369 | 712.23
332.94 K, 6062 kPa, x2 = 0.0551 | 706.62
332.94 K, 7009 kPa, x2 = 0.0551 | 707.53
332.94 K, 7015 kPa, x2 = 0.4536 | 721.74
332.94 K, 7019 kPa, x2 = 0.2369 | 713.38
332.94 K, 7978 kPa, x2 = 0.0551 | 708.43
332.94 K, 8020 kPa, x2 = 0.2369 | 714.47
332.94 K, 8025 kPa, x2 = 0.4536 | 723.26
332.94 K, 9016 kPa, x2 = 0.4536 | 724.72
332.94 K, 9017 kPa, x2 = 0.2369 | 715.56
332.94 K, 9037 kPa, x2 = 0.0551 | 709.44
332.94 K, 9992 kPa, x2 = 0.0551 | 710.31
332.94 K, 10015 kPa, x2 = 0.2369 | 716.65
332.94 K, 10023 kPa, x2 = 0.4536 | 726.15
332.94 K, 11009 kPa, x2 = 0.2369 | 717.69
332.94 K, 11014 kPa, x2 = 0.4536 | 727.55
332.94 K, 11032 kPa, x2 = 0.0551 | 711.27
332.94 K, 12001 kPa, x2 = 0.4536 | 728.9
332.94 K, 12005 kPa, x2 = 0.9663 | 511.9
332.94 K, 12013 kPa, x2 = 0.0551 | 712.13
332.94 K, 12015 kPa, x2 = 0.2369 | 718.74
332.94 K, 12511 kPa, x2 = 0.9663 | 544.43
332.94 K, 13003 kPa, x2 = 0.9663 | 571.24
332.94 K, 13015 kPa, x2 = 0.2369 | 719.76
332.94 K, 13027 kPa, x2 = 0.0551 | 713.03
332.94 K, 13045 kPa, x2 = 0.4536 | 730.28
332.94 K, 13998 kPa, x2 = 0.4536 | 731.55
332.94 K, 14011 kPa, x2 = 0.2369 | 720.77
332.94 K, 14015 kPa, x2 = 0.9663 | 614.37
332.94 K, 14018 kPa, x2 = 0.0551 | 713.89
332.94 K, 15000 kPa, x2 = 0.4536 | 732.81
332.94 K, 15003 kPa, x2 = 0.2369 | 721.75
332.94 K, 15021 kPa, x2 = 0.0551 | 714.75
332.94 K, 15026 kPa, x2 = 0.9663 | 648.23
332.94 K, 15997 kPa, x2 = 0.0551 | 715.59
332.94 K, 16019 kPa, x2 = 0.2369 | 722.73
332.94 K, 16032 kPa, x2 = 0.4536 | 734.14
332.94 K, 16035 kPa, x2 = 0.9663 | 674.85
332.94 K, 16998 kPa, x2 = 0.0551 | 716.44
332.94 K, 17015 kPa, x2 = 0.2369 | 723.7
332.94 K, 17018 kPa, x2 = 0.4536 | 735.36
332.94 K, 17018 kPa, x2 = 0.9663 | 695.62
332.94 K, 18016 kPa, x2 = 0.9663 | 713.48
332.94 K, 18021 kPa, x2 = 0.4536 | 736.57
332.94 K, 18026 kPa, x2 = 0.2369 | 724.66
332.94 K, 18031 kPa, x2 = 0.0551 | 717.29
332.94 K, 19002 kPa, x2 = 0.9663 | 728.62
332.94 K, 19004 kPa, x2 = 0.0551 | 718.07
332.94 K, 19012 kPa, x2 = 0.4536 | 737.79
332.94 K, 19022 kPa, x2 = 0.2369 | 725.6
332.94 K, 20002 kPa, x2 = 0.0551 | 718.88
332.94 K, 20002 kPa, x2 = 0.4536 | 738.93
332.94 K, 20012 kPa, x2 = 0.2369 | 726.51
332.94 K, 20033 kPa, x2 = 0.9663 | 742.59
332.94 K, 21014 kPa, x2 = 0.0551 | 719.68
332.94 K, 21022 kPa, x2 = 0.9663 | 754.63
332.94 K, 21024 kPa, x2 = 0.2369 | 727.44
332.94 K, 21028 kPa, x2 = 0.4536 | 740.14
332.94 K, 22021 kPa, x2 = 0.2369 | 728.35
332.94 K, 22021 kPa, x2 = 0.4536 | 741.29
332.94 K, 22027 kPa, x2 = 0.0551 | 720.5
332.94 K, 22029 kPa, x2 = 0.9663 | 765.58
332.94 K, 23009 kPa, x2 = 0.4536 | 742.44
332.94 K, 23010 kPa, x2 = 0.2369 | 729.26
